Measured values published in patent US20240109917A1 (ACTELION PHARMACEUTICALS LTD, priority 2020, published 2024).

Biological target: VEGFR2, unphosphorylated (Homo sapiens (Human), UniProt P35968)
Experiment: VEGFR ADP GLO Assay
Format: biochemical

VEGFR2, unphosphorylated, sequence (P35968 20-1356): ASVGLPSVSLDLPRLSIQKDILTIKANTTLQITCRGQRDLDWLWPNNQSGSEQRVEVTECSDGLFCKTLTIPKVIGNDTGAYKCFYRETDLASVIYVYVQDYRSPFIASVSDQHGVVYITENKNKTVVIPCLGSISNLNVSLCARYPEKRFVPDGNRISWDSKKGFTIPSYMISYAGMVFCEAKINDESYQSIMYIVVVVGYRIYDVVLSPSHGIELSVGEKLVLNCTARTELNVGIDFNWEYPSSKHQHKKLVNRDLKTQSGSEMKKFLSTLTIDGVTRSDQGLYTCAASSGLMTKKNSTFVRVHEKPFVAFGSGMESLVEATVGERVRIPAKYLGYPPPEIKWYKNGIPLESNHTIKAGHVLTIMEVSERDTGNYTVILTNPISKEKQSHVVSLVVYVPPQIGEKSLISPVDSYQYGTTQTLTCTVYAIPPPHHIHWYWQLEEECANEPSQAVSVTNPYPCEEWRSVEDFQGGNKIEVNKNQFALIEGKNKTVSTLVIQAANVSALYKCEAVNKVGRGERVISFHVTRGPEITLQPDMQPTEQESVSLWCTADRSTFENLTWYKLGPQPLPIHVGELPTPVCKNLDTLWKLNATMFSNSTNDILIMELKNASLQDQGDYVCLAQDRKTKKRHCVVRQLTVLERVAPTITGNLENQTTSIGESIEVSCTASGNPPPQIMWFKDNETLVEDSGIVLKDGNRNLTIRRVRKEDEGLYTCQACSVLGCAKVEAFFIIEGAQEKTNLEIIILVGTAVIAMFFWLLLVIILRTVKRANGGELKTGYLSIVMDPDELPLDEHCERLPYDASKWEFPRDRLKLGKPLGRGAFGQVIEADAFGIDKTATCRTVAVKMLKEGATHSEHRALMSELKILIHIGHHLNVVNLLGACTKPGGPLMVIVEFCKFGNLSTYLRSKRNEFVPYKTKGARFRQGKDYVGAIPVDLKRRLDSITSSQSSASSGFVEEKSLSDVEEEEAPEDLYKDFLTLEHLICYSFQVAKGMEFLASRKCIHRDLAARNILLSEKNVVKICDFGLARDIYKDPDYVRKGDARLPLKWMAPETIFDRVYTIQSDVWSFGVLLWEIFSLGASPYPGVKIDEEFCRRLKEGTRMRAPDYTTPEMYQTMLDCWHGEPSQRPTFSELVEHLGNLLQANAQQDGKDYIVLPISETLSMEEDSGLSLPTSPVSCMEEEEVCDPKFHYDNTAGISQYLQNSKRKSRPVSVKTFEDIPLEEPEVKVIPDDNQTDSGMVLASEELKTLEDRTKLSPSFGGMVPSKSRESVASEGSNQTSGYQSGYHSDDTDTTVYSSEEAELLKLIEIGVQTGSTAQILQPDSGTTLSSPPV

Structure (SMILES) | IC50
Cc1ncc(NC(=O)C[C@H]2CCN(C(C)C)C2)cc1NC(=O)c1cnn2cc(-c3cnn(C)c3)sc12 [Example 465, (R)—N-(5-(2-(1-isopropylpyrrolidin-3-yl)acetamido)-2-methylpyridin-3-yl)-2-(1-methyl-1H-pyrazol-4-yl)pyrazolo[5,1-b]thiazole-7-carboxamide] | > 7.5 µM
Cc1ncc(NC(=O)CN2CC(C)(C)C2)cc1NC(=O)c1cnn2cc(-c3cnn4c3COCC4)sc12 [Example 476, 2-(6,7-dihydro-4H-pyrazolo[5,1-c][1,4]oxazin-3-yl)-N-(5-(2-(3,3-dimethylazetidin-1-yl)acetamido)-2-methylpyridin-3-yl)pyrazolo[5,1-b]thiazole-7-carboxamide] | > 7.5 µM
Cc1ncc(C(=O)NCCN2CCCC2(C)C)cc1NC(=O)c1cnn2cc(-c3cnn4c3CCC4)sc12 [Example 481, 2-(5,6-dihydro-4H-pyrrolo[1,2-b]pyrazol-3-yl)-N-(5-((2-(2,2-dimethylpyrrolidin-1-yl)ethyl)carbamoyl)-2-methylpyridin-3-yl)pyrazolo[5,1-b]thiazole-7-carboxamide] | > 7.5 µM
Cc1ncc(NC(=O)CNC2CCCC2)cc1NC(=O)c1cnn2cc(-c3cnn4c3CCC4)sc12 [Example 422, N-(5-(2-(cyclopentylamino)acetamido)-2-methylpyridin-3-yl)-2-(5,6-dihydro-4H-pyrrolo[1,2-b]pyrazol-3-yl)pyrazolo[5,1-b]thiazole-7-carboxamide] | > 7.5 µM
Cc1cc(C(=O)NCCN2CCCC2(C)C)sc1NC(=O)c1cnn2cc(-c3cccnc3)sc12 [Example 36, N-(5-((2-(2,2-dimethylpyrrolidin-1-yl)ethyl)carbamoyl)-3-methylthiophen-2-yl)-2-(pyridin-3-yl)pyrazolo[5,1-b]thiazole-7-carboxamide] | > 7.5 µM
Cc1ncc(NC(=O)CN2CC(C)(C)C2)cc1NC(=O)c1cnn2cc(-c3nn(C)nc3C)sc12 [Example 445, 2-(2,5-Dimethyl-2H-1,2,3-triazol-4-yl)-N-(5-(2-(3,3-dimethylazetidin-1-yl)acetamido)-2-methylpyridin-3-yl)pyrazolo[5,1-b]thiazole-7-carboxamide] | > 7.5 µM
Cc1cc(C(=O)NCCN2CCCC23CC3)sc1NC(=O)c1cnn2cc(-c3cnn(C)c3)sc12 [Example 37, N-(5-((2-(4-azaspiro[2.4]heptan-4-yl)ethyl)carbamoyl)-3-methylthiophen-2-yl)-2-(1-methyl-1H-pyrazol-4-yl)pyrazolo[5,1-b]thiazole-7-carboxamide] | > 7.5 µM
Cc1ncc(NC(=O)CN2CC(C)(C)C2)cc1NC(=O)c1cnn2cc(-c3c(C)nn(C4COC4)c3C)sc12 [Example 425, 2-(3,5-dimethyl-1-(oxetan-3-yl)-1H-pyrazol-4-yl)-N-(5-(2-(3,3-dimethylazetidin-1-yl)acetamido)-2-methylpyridin-3-yl)pyrazolo[5,1-b]thiazole-7-carboxamide] | > 7.5 µM
Cc1ncc(C(=O)NCCN2CCCC2(C)C)cc1NC(=O)c1cnn2cc(-c3cnn4c3COCC4)sc12 [Example 450, 2-(6,7-dihydro-4H-pyrazolo[5,1-c][1,4]oxazin-3-yl)-N-(5-((2-(2,2-dimethylpyrrolidin-1-yl)ethyl)carbamoyl)-2-methylpyridin-3-yl)pyrazolo[5,1-b]thiazole-7-carboxamide] | > 7.5 µM
Cc1ncc(NC(=O)CN2C[C@@H](C)O[C@H](C)C2)cc1NC(=O)c1cnn2cc(-c3cn(C)nc3C)sc12 [Example 431] | > 7.5 µM
COc1ccncc1-c1cn2ncc(C(=O)Nc3cc(NC(=O)CN4CC(C)(C)C4)cnc3C)c2s1 [Example 40, N-(5-(2-(3,3-dimethylazetidin-1-yl)acetamido)-2-methylpyridin-3-yl)-2-(4-methoxypyridin-3-yl)pyrazolo[5,1-b]thiazole-7-carboxamide] | 6.18 µM
COC1(C)CN(CC(=O)Nc2cnc(C)c(NC(=O)c3cnn4cc(-c5cn(C)nc5C)sc34)c2)C1 [Example 442, 2-(1,3-Dimethyl-1H-pyrazol-4-yl)-N-(5-(2-(3-methoxy-3-methylazetidin-1-yl)acetamido)-2-methylpyridin-3-yl)pyrazolo[5,1-b]thiazole-7-carboxamide] | > 7.5 µM
Cc1ncc(NC(=O)CN2CC(C)(C)C2)cc1NC(=O)c1cnn2cc(-c3ccnnc3C)sc12 [Example 410, N-(5-(2-(3,3-dimethylazetidin-1-yl)acetamido)-2-methylpyridin-3-yl)-2-(3-methylpyridazin-4-yl)pyrazolo[5,1-b]thiazole-7-carboxamide] | > 7.5 µM
Cc1ncc(NC(=O)CN2CC(C)(C)C2)cc1NC(=O)c1cnn2cc(-c3cnn(CCS(C)(=O)=O)c3)sc12 [Example 435, N-(5-(2-(3,3-Dimethylazetidin-1-yl)acetamido)-2-methylpyridin-3-yl)-2-(1-(2-(methylsulfonyl)ethyl)-1H-pyrazol-4-yl)pyrazolo[5,1-b]thiazole-7-carboxamide] | > 7.5 µM
Cc1ncc(NC(=O)CN2CC(C)(C)C2)cc1NC(=O)c1cnn2cc(-c3cnn4c3OCCC4)sc12 [Example 39, 2-(6,7-dihydro-5H-pyrazolo[5,1-b][1,3]oxazin-3-yl)-N-(5-(2-(3,3-dimethylazetidin-1-yl)acetamido)-2-methylpyridin-3-yl)pyrazolo[5,1-b]thiazole-7-carboxamide] | 2.04 µM
Cc1ncc(C(=O)NCCN2CCCC23CCC3)cc1NC(=O)c1cnn2cc(-c3cnn4c3OCCC4)sc12 [Example 478, N-(5-((2-(5-azaspiro[3.4]octan-5-yl)ethyl)carbamoyl)-2-methylpyridin-3-yl)-2-(6,7-dihydro-5H-pyrazolo[5,1-b][1,3]oxazin-3-yl)pyrazolo[5,1-b]thiazole-7-carboxamide] | 2.56 µM
Cc1ncc(NC(=O)CN2CC(C)(C)C2)cc1NC(=O)c1cnn2cc(-c3cncnc3)sc12 [Example 429, N-(5-(2-(3,3-dimethylazetidin-1-yl)acetamido)-2-methylpyridin-3-yl)-2-(pyrimidin-5-yl)pyrazolo[5,1-b]thiazole-7-carboxamide] | > 7.5 µM
Cc1ncc(NC(=O)CN2C[C@@H](C)O[C@H](C)C2)cc1NC(=O)c1cnn2cc(-c3cnn(C)c3C)sc12 (relative stereo) [Example 433, 2-(1,5-Dimethyl-1H-pyrazol-4-yl)-N-(5-(2-(trans-2,6-dimethylmorpholino)acetamido)-2-methylpyridin-3-yl)pyrazolo[5,1-b]thiazole-7-carboxamide] | > 7.5 µM
Cc1ncc(NC(=O)CN2CC(C)(C)C2)cc1NC(=O)c1cnn2cc(-c3cnn(C(F)F)c3)sc12 [Example 428, 2-(1-(difluoromethyl)-1H-pyrazol-4-yl)-N-(5-(2-(3,3-dimethylazetidin-1-yl)acetamido)-2-methylpyridin-3-yl)pyrazolo[5,1-b]thiazole-7-carboxamide] | > 7.5 µM
Cc1ncc(NC(=O)CN2CCCC[C@@H]2C)cc1NC(=O)c1cnn2cc(-c3cnn(CCO)c3)sc12 [Example 34, (S)-2-(1-(2-hydroxyethyl)-1H-pyrazol-4-yl)-N-(2-methyl-5-(2-(2-methyl-piperidin-1-yl)acetamido)pyridin-3-yl)pyrazolo[5,1-b]thiazole-7-carboxamide] | > 7.5 µM
Cc1ncc(NC(=O)CNCC2CC2)cc1NC(=O)c1cnn2cc(-c3cnn4c3CCC4)sc12 [Example 454, N-(5-(2-((cyclopropylmethyl)amino)acetamido)-2-methylpyridin-3-yl)-2-(5,6-dihydro-4H-pyrrolo[1,2-b]pyrazol-3-yl)pyrazolo[5,1-b]thiazole-7-carboxamide] | > 7.5 µM
COCCn1cc(-c2cn3ncc(C(=O)Nc4cc(NC(=O)CN5CCC5C(C)C)cnc4C)c3s2)cn1 (stereo not shown) [Example 467, N-(5-(2-(2-isopropylazetidin-1-yl)acetamido)-2-methylpyridin-3-yl)-2-(1-(2-methoxyethyl)-1H-pyrazol-4-yl)pyrazolo[5,1-b]thiazole-7-carboxamide] | > 7.5 µM
Cc1ncc(C(=O)NCC2CCCN2C)cc1NC(=O)c1cnn2cc(-c3cnn4c3OCCC4)sc12 (stereo not shown) [Example 470, 2-(6,7-dihydro-5H-pyrazolo[5,1-b][1,3]oxazin-3-yl)-N-(2-methyl-5-(((1-methylpyrrolidin-2-yl)methyl)carbamoyl)pyridin-3-yl)pyrazolo[5,1-b]thiazole-7-carboxamide] | > 7.5 µM
Cc1ncc(NC(=O)CN2C[C@@H](C)O[C@H](C)C2)cc1NC(=O)c1cnn2cc(-c3cnn(CCS(C)(=O)=O)c3)sc12 (relative stereo) [Example 432, N-(5-(2-(trans-2,6-dimethylmorpholino)acetamido)-2-methylpyridin-3-yl)-2-(1-(2-(methylsulfonyl)ethyl)-1H-pyrazol-4-yl)pyrazolo[5,1-b]thiazole-7-carboxamide] | > 2.5 µM
Cc1ncc(NC(=O)CN2CCCC2(C)C)cc1NC(=O)c1cnn2cc(-c3cnn4c3COCC4)sc12 [Example 458, 2-(6,7-dihydro-4H-pyrazolo[5,1-c][1,4]oxazin-3-yl)-N-(5-(2-(2,2-dimethylpyrrolidin-1-yl)acetamido)-2-methylpyridin-3-yl)pyrazolo[5,1-b]thiazole-7-carboxamide] | > 7.5 µM
Cc1ncc(C(=O)NCCN2CC3CCC2CC3)cc1NC(=O)c1cnn2cc(-c3cnn4c3CCC4)sc12 [Example 480, N-(5-((2-(2-azabicyclo[2.2.2]octan-2-yl)ethyl)carbamoyl)-2-methylpyridin-3-yl)-2-(5,6-dihydro-4H-pyrrolo[1,2-b]pyrazol-3-yl)pyrazolo[5,1-b]thiazole-7-carboxamide] | > 7.5 µM
Cc1ncc(NC(=O)CN2CC3(CCCCO3)C2)cc1NC(=O)c1cnn2cc(-c3cnn4c3OCCC4)sc12 [Example 423, N-(5-(2-(5-oxa-2-azaspiro[3.5]nonan-2-yl)acetamido)-2-methylpyridin-3-yl)-2-(6,7-dihydro-5H-pyrazolo[5,1-b][1,3]oxazin-3-yl)pyrazolo[5,1-b]thiazole-7-carboxamide] | > 7.5 µM
Cc1ncc(NC(=O)CNCC(C)C)cc1NC(=O)c1cnn2cc(-c3cnn4c3OCCC4)sc12 [Example 414, 2-(6,7-dihydro-5H-pyrazolo[5,1-b][1,3]oxazin-3-yl)-N-(5-(2-(isobutylamino)acetamido)-2-methylpyridin-3-yl)pyrazolo[5,1-b]thiazole-7-carboxamide] | 5.1 µM
